In series [1] the target is T1, NudC (NudC^Mab; MAB_3513c) (Mycobacteroides abscessus, UniProt A0A0U1C370).
T1 construct: native full-length protein in M. abscessus cells, compared with isogenic nudC deletion; functional homodimer
Description: HPLC/MS of metabolite extracts, wild type versus nudC deletion strain. It is filed as cell-based. To be noted: adduct formed in cells from ethionamide (256 ug/mL, 3 h, 37 C); no purified enzyme assay.

Series [2] concerns the molecule itself. Briefly: SEC; HiLoad 16/600 Superdex 75 pg, 20 mM Tris-HCl (pH 7.5), 150 mM NaCl, 1 mM 1,4-dithiothreitol, 4°C, 1 mL/min; retention times compared to molecular weight standards. (In general: SEC sorts molecules by how far they enter the pores of the column.)

From publication PMC12772312, “The MAB_3513c gene plays a key role in intrinsic resistance of Mycobacterium abscessus to isoniazid and ethionamide” (Microbiology Spectrum, 2025) come the findings set out here.

With `CCc1cc(C(=O)C2C=CN([C@@H]3O[C@H](COP(=O)(O)OP(=O)(O)OC[C@H]4O[C@@H](n5cnc6c(N)ncnc65)[C@H](O)[C@@H]4O)[C@@H](O)[C@H]3O)C=C2C(N)=O)ccn1` (some centres unmarked) [ETH-NAD adduct], in series [1], the “HPLC/MS of metabolite extracts, wild type versus nudC deletion strain” value is reported as “nudC encodes a functional NudC that hydrolyzes ETH-NAD adduct”.

B1: Mycobacterium abscessus NADH pyrophosphatase NudC (MAB_3513c), wild type (enzyme)
chain: MTFRLRNIPLLSRVGLDRADELRSNPEELAKGWAEAGLITLDVRGRVNIVDGQVVIEDAARIGDQPPEHAVFLGRIPGGRHVWAVRADLDEDSAPLLDLRRSGQLFDDTSAALLATAMAMLAWHDNAGYSPVDGSPTIPAKGGWVRVNSATGQEEFPRTDPAIICLVHDGGDRAVLGRQKFWPERMFSLLAGFVEAGESLEACVAREVAEEVGLTVTDVQYLGSQPWPFPRSIMLGFHAIGDPSQPFAFNDGEIAEADWFTRAEVRSALEAGDWTTASDSRLMLPGSISIAREIVESWAYAGEEPPAGRP
notes: NADH pyrophosphatase NudC of Mycobacterium abscessus, gene MAB_3513c (nudC); The strain used in the study is M. abscessus subsp. abscessus GZ002 (genome GenBank CP034181); also called Wt NudC; source: E. coli BL21 (λDE3), pET-28a, purified (his-tag protein purification kit)
B1: in series [2], the stoichiometry N – broadly, the number of molecules, sites or subunits per partner or assembly – was determined as 2.
